Columns and labels:
[1] = Ratio of drug uptake in pons to cerebellum in anesthetized cynomolgus monkey after 18.5 mins postinjection; format: ADME, organism-based, Macaca fascicularis; conditions: in vivo
[2] = Ratio of drug uptake in medulla to cerebellum in anesthetized cynomolgus monkey after 1.5 mins postinjection; format: ADME, organism-based, Macaca fascicularis; conditions: in vivo, 0.025 h
[3] = Ratio of drug uptake in medulla to cerebellum in anesthetized cynomolgus monkey after 12.5 mins postinjection; format: ADME, organism-based, Macaca fascicularis; conditions: in vivo
[4] = Ratio of drug uptake in medulla to cerebellum in anesthetized cynomolgus monkey after 18.5 mins postinjection; format: ADME, organism-based, Macaca fascicularis; conditions: in vivo
[5] = Drug uptake in anesthetized cynomolgus monkey brain occipital lobe after 35 mins postinjection; format: ADME, organism-based, Macaca fascicularis; conditions: in vivo
[6] = Drug uptake in anesthetized cynomolgus monkey brain occipital lobe after 95 mins postinjection; format: ADME, organism-based, Macaca fascicularis; conditions: in vivo
[7] = Drug uptake in anesthetized cynomolgus monkey brain occipital lobe after 155 mins postinjection; format: ADME, organism-based, Macaca fascicularis; conditions: in vivo
[8] = Drug uptake in anesthetized cynomolgus monkey brain occipital lobe after 215 mins postinjection; format: ADME, organism-based, Macaca fascicularis; conditions: in vivo
[9] = Drug uptake in anesthetized cynomolgus monkey brain frontal lobe after 3.5 mins postinjection; format: ADME, organism-based, Macaca fascicularis; conditions: in vivo
[10] = Drug uptake in anesthetized cynomolgus monkey brain frontal lobe after 22.5 mins postinjection; format: ADME, organism-based, Macaca fascicularis; conditions: in vivo, 0.375 h
[11] = Drug uptake in anesthetized cynomolgus monkey brain frontal lobe after 35 mins postinjection; format: ADME, organism-based, Macaca fascicularis; conditions: in vivo
[12] = Drug uptake in anesthetized cynomolgus monkey brain frontal lobe after 55 mins postinjection; format: ADME, organism-based, Macaca fascicularis; conditions: in vivo
[13] = Drug uptake in anesthetized cynomolgus monkey brain frontal lobe after 215 mins postinjection; format: ADME, organism-based, Macaca fascicularis; conditions: in vivo
[14] = Ratio of drug uptake in pons to cerebellum in anesthetized cynomolgus monkey after 0.5 mins postinjection; format: ADME, organism-based, Macaca fascicularis; conditions: in vivo
Putamen [15] = test: Drug uptake in anesthetized cynomolgus monkey brain putamen after 115 mins postinjection; format: ADME, organism-based, Macaca fascicularis; set-up: unit not given here; conditions: in vivo
Thalamus [16] = test: Drug uptake in anesthetized cynomolgus monkey brain thalamus after 1.5 mins postinjection; format: ADME, organism-based, Macaca fascicularis; conditions: in vivo, 0.025 h
[17] = Ratio of drug uptake in occipital lobe to cerebellum in anesthetized cynomolgus monkey after 205 mins postinjection; format: ADME, organism-based, Macaca fascicularis; conditions: in vivo
Pons [18] = test: Drug uptake in anesthetized cynomolgus monkey brain pons after 2.5 mins postinjection; format: ADME, organism-based, Macaca fascicularis; conditions: in vivo
Pons [19] = test: Drug uptake in anesthetized cynomolgus monkey brain pons after 15.5 mins postinjection; format: ADME, organism-based, Macaca fascicularis; conditions: in vivo
Pons [20] = test: Drug uptake in anesthetized cynomolgus monkey brain pons after 27.5 mins postinjection; format: ADME, organism-based, Macaca fascicularis; conditions: in vivo
Pons [21] = test: Drug uptake in anesthetized cynomolgus monkey brain pons after 65 mins postinjection; format: ADME, organism-based, Macaca fascicularis; conditions: in vivo
Pons [22] = test: Drug uptake in anesthetized cynomolgus monkey brain pons after 75 mins postinjection; format: ADME, organism-based, Macaca fascicularis; conditions: in vivo, 1.25 h
Midbrain [23] = test: Drug uptake in anesthetized cynomolgus monkey brain midbrain after 185 mins postinjection; format: ADME, organism-based, Macaca fascicularis; conditions: in vivo
Midbrain [24] = test: Drug uptake in anesthetized cynomolgus monkey brain midbrain after 195 mins postinjection; format: ADME, organism-based, Macaca fascicularis; conditions: in vivo, 3.25 h
Medulla [25] = test: Drug uptake in anesthetized cynomolgus monkey brain medulla after 195 mins postinjection; format: ADME, organism-based, Macaca fascicularis; conditions: in vivo, 3.25 h
[26] = Ratio of drug uptake in frontal lobe to cerebellum in anesthetized cynomolgus monkey after 235 mins postinjection; format: ADME, organism-based, Macaca fascicularis; conditions: in vivo
[27] = Ratio of drug uptake in caudate to cerebellum in anesthetized cynomolgus monkey after 9.5 mins postinjection; format: ADME, organism-based, Macaca fascicularis; conditions: in vivo
[28] = Ratio of drug uptake in caudate to cerebellum in anesthetized cynomolgus monkey after 12.5 mins postinjection; format: ADME, organism-based, Macaca fascicularis; conditions: in vivo
Pons [29] = test: Drug uptake in anesthetized cynomolgus monkey brain pons after 145 mins postinjection; format: ADME, organism-based, Macaca fascicularis; conditions: in vivo
Pons [30] = test: Drug uptake in anesthetized cynomolgus monkey brain pons after 165 mins postinjection; format: ADME, organism-based, Macaca fascicularis; conditions: in vivo, 2.75 h
Pons [31] = test: Drug uptake in anesthetized cynomolgus monkey brain pons after 215 mins postinjection; format: ADME, organism-based, Macaca fascicularis; conditions: in vivo
[32] = Ratio of drug uptake in caudate to cerebellum in anesthetized cynomolgus monkey after 225 mins postinjection; format: ADME, organism-based, Macaca fascicularis; conditions: in vivo, 3.75 h
[33] = Ratio of drug uptake in putamen to cerebellum in anesthetized cynomolgus monkey after 35 mins postinjection; format: ADME, organism-based, Macaca fascicularis; conditions: in vivo
Medulla [34] = test: Drug uptake in anesthetized cynomolgus monkey brain medulla after 155 mins postinjection; format: ADME, organism-based, Macaca fascicularis; conditions: in vivo
[35] = Ratio of drug uptake in putamen to cerebellum in anesthetized cynomolgus monkey after 75 mins postinjection; format: ADME, organism-based, Macaca fascicularis; conditions: in vivo, 1.25 h
[36] = Ratio of drug uptake in putamen to cerebellum in anesthetized cynomolgus monkey after 155 mins postinjection; format: ADME, organism-based, Macaca fascicularis; conditions: in vivo
Medulla [37] = test: Drug uptake in anesthetized cynomolgus monkey brain medulla after 225 mins postinjection; format: ADME, organism-based, Macaca fascicularis; conditions: in vivo, 3.75 h
[38] = Drug uptake in anesthetized cynomolgus monkey brain cerebellum after 0.5 mins postinjection; format: ADME, organism-based, Macaca fascicularis; conditions: in vivo
[39] = Drug uptake in anesthetized cynomolgus monkey brain cerebellum after 3.5 mins postinjection; format: ADME, organism-based, Macaca fascicularis; conditions: in vivo
[40] = Drug uptake in anesthetized cynomolgus monkey brain cerebellum after 9.5 mins postinjection; format: ADME, organism-based, Macaca fascicularis; conditions: in vivo
[41] = Drug uptake in anesthetized cynomolgus monkey brain cerebellum after 85 mins postinjection; format: ADME, organism-based, Macaca fascicularis; conditions: in vivo
[42] = Drug uptake in anesthetized cynomolgus monkey brain occipital lobe after 0.5 mins postinjection; format: ADME, organism-based, Macaca fascicularis; conditions: in vivo
[43] = Ratio of drug uptake in putamen to cerebellum in anesthetized cynomolgus monkey after 215 mins postinjection; format: ADME, organism-based, Macaca fascicularis; conditions: in vivo
[44] = Ratio of drug uptake in thalamus to cerebellum in anesthetized cynomolgus monkey after 135 mins postinjection; format: ADME, organism-based, Macaca fascicularis; conditions: in vivo, 2.25 h
Caudate [45] = test: Drug uptake in anesthetized cynomolgus monkey brain caudate after 0.5 mins postinjection; format: ADME, organism-based, Macaca fascicularis, Caudate nucleus; conditions: in vivo
Caudate [46] = test: Drug uptake in anesthetized cynomolgus monkey brain caudate after 3.5 mins postinjection; format: ADME, organism-based, Macaca fascicularis, Caudate nucleus; conditions: in vivo
Caudate [47] = test: Drug uptake in anesthetized cynomolgus monkey brain caudate after 85 mins postinjection; format: ADME, organism-based, Macaca fascicularis, Caudate nucleus; conditions: in vivo
Caudate [48] = test: Drug uptake in anesthetized cynomolgus monkey brain caudate after 105 mins postinjection; format: ADME, organism-based, Macaca fascicularis, Caudate nucleus; conditions: in vivo, 1.75 h
Caudate [49] = test: Drug uptake in anesthetized cynomolgus monkey brain caudate after 175 mins postinjection; format: ADME, organism-based, Macaca fascicularis, Caudate nucleus; conditions: in vivo
Thalamus [50] = test: Drug uptake in anesthetized cynomolgus monkey brain thalamus after 4.5 mins postinjection; format: ADME, organism-based, Macaca fascicularis; set-up: unit not given here; conditions: in vivo, 0.075 h
Thalamus [51] = test: Drug uptake in anesthetized cynomolgus monkey brain thalamus after 22.5 mins postinjection; format: ADME, organism-based, Macaca fascicularis; set-up: unit not given here; conditions: in vivo, 0.375 h
Putamen [52] = test: Drug uptake in anesthetized cynomolgus monkey brain putamen after 6.5 mins postinjection; format: ADME, organism-based, Macaca fascicularis; set-up: unit not given here; conditions: in vivo
Putamen [53] = test: Drug uptake in anesthetized cynomolgus monkey brain putamen after 9.5 mins postinjection; format: ADME, organism-based, Macaca fascicularis; set-up: unit not given here; conditions: in vivo
Putamen [54] = test: Drug uptake in anesthetized cynomolgus monkey brain putamen after 12.5 mins postinjection; format: ADME, organism-based, Macaca fascicularis; set-up: unit not given here; conditions: in vivo
Putamen [55] = test: Drug uptake in anesthetized cynomolgus monkey brain putamen after 35 mins postinjection; format: ADME, organism-based, Macaca fascicularis; set-up: unit not given here; conditions: in vivo
Putamen [56] = test: Drug uptake in anesthetized cynomolgus monkey brain putamen after 55 mins postinjection; format: ADME, organism-based, Macaca fascicularis; set-up: unit not given here; conditions: in vivo
Thalamus [57] = test: Drug uptake in anesthetized cynomolgus monkey brain thalamus after 55 mins postinjection; format: ADME, organism-based, Macaca fascicularis; set-up: unit not given here; conditions: in vivo
Thalamus [58] = test: Drug uptake in anesthetized cynomolgus monkey brain thalamus after 75 mins postinjection; format: ADME, organism-based, Macaca fascicularis; set-up: unit not given here; conditions: in vivo, 1.25 h
Thalamus [59] = test: Drug uptake in anesthetized cynomolgus monkey brain thalamus after 175 mins postinjection; format: ADME, organism-based, Macaca fascicularis; set-up: unit not given here; conditions: in vivo
Midbrain [60] = test: Drug uptake in anesthetized cynomolgus monkey brain midbrain after 1.5 mins postinjection; format: ADME, organism-based, Macaca fascicularis; set-up: unit not given here; conditions: in vivo, 0.025 h
Midbrain [61] = test: Drug uptake in anesthetized cynomolgus monkey brain midbrain after 9.5 mins postinjection; format: ADME, organism-based, Macaca fascicularis; set-up: unit not given here; conditions: in vivo
Midbrain [62] = test: Drug uptake in anesthetized cynomolgus monkey brain midbrain after 18.5 mins postinjection; format: ADME, organism-based, Macaca fascicularis; set-up: unit not given here; conditions: in vivo
Midbrain [63] = test: Drug uptake in anesthetized cynomolgus monkey brain midbrain after 65 mins postinjection; format: ADME, organism-based, Macaca fascicularis; set-up: unit not given here; conditions: in vivo
[64] = Ratio of drug uptake in midbrain to cerebellum in anesthetized cynomolgus monkey after 2.5 mins postinjection; format: ADME, organism-based, Macaca fascicularis; conditions: in vivo
[65] = Ratio of drug uptake in midbrain to cerebellum in anesthetized cynomolgus monkey after 85 mins postinjection; format: ADME, organism-based, Macaca fascicularis; conditions: in vivo
[66] = Ratio of drug uptake in midbrain to cerebellum in anesthetized cynomolgus monkey after 95 mins postinjection; format: ADME, organism-based, Macaca fascicularis; conditions: in vivo
[67] = Ratio of drug uptake in midbrain to cerebellum in anesthetized cynomolgus monkey after 145 mins postinjection; format: ADME, organism-based, Macaca fascicularis; conditions: in vivo

Work on O=C(OCCC[18F])C1C2CCC(CC1c1cccc(/C=C\I)c1)N2 (configuration not stated) yielded a Ratio [1] of 0.9, a Ratio [2] of 1.3 and a Ratio [3] of 1. The Ratio [4] was 1, the Drug uptake [5] was 4.01 and the Drug uptake [6] was 3.35. The Drug uptake [7] was 2.63, the Drug uptake [8] was 2.08 and the Drug uptake [9] was 0.83. For the same molecule, the Drug uptake [10] was 2.64, the Drug uptake [11] was 2.85 and the Drug uptake [12] was 2.82. The Drug uptake [13] was 1.99, the Ratio [14] was 1.7 and the Drug uptake (Putamen [15]) was 4.44. It also gave a Drug uptake (Thalamus [16]) of 0.24, a Ratio [17] of 1.2 and a Drug uptake (Pons [18]) of 0.95. It also gave a Drug uptake (Pons [19]) of 3.62, a Drug uptake (Pons [20]) of 4.39 and a Drug uptake (Pons [21]) of 4.54. The Drug uptake (Pons [22]) was 4.34, the Drug uptake (Midbrain [23]) was 4.05 and the Drug uptake (Midbrain [24]) was 3.85. It also gave a Drug uptake (Medulla [25]) of 3.78, a Ratio [26] of 0.9 and a Ratio [27] of 0.6. The Ratio [28] was 0.7, the Drug uptake (Pons [29]) was 3.74 and the Drug uptake (Pons [30]) was 3.73. The Drug uptake (Pons [31]) was 3.11, the Ratio [32] was 1.3 and the Ratio [33] was 1.1. For the same molecule, the Drug uptake (Medulla [34]) was 4.09, the Ratio [35] was 1.3 and the Ratio [36] was 1.6. The Drug uptake (Medulla [37]) was 3.6, the Drug uptake [38] was 0.01 and the Drug uptake [39] was 1.95. The Drug uptake [40] was 4.24, the Drug uptake [41] was 3.6 and the Drug uptake [42] was 0.01. For the same molecule, the Ratio [43] was 1.5, the Ratio [44] was 1.5 and the Drug uptake (Caudate [45]) was 0.01. For the same molecule, the Drug uptake (Caudate [46]) was 1.15, the Drug uptake (Caudate [47]) was 3.94 and the Drug uptake (Caudate [48]) was 3.7. The Drug uptake (Caudate [49]) was 2.83, the Drug uptake (Thalamus [50]) was 2.07 and the Drug uptake (Thalamus [51]) was 4.46. It also gave a Drug uptake (Putamen [52]) of 3.28, a Drug uptake (Putamen [53]) of 3.75 and a Drug uptake (Putamen [54]) of 4.08. It also gave a Drug uptake (Putamen [55]) of 4.99, a Drug uptake (Putamen [56]) of 5.03 and a Drug uptake (Thalamus [57]) of 4.89. For the same molecule, the Drug uptake (Thalamus [58]) was 4.76, the Drug uptake (Thalamus [59]) was 3.44 and the Drug uptake (Midbrain [60]) was 0.32. The Drug uptake (Midbrain [61]) was 4, the Drug uptake (Midbrain [62]) was 4.65 and the Drug uptake (Midbrain [63]) was 4.97. The Ratio [64] was 0.9, the Ratio [65] was 1.4 and the Ratio [66] was 1.4. For the same molecule, the Ratio [67] was 1.8.

From ChEMBL document CHEMBL1151757, “Synthesis, radiosynthesis, and biological evaluation of fluorine-18-labeled 2beta-carbo(fluoroalkoxy)-3beta-(3'-((Z)-2-haloethenyl)phenyl)nortropanes: candidate radioligands for in vivo imaging of the serotonin transporter with positron emission tomography” (J Med Chem, 2008)
